Measurements: PubChem BioAssay (NCI)
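Briefly, cells in 96-well plates were exposed to five compound concentrations for 48 h, and endpoints were estimated by linear interpolation. Here, GI50 denotes the concentration required for 50% inhibition of growth. TGI is the concentration that stops growth completely.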

How the values were obtained:
Assay in all cases: DTP human tumour cell line panel, 48 h
[1] = test system: T-47D breast
[2] = test system: HCT-116 colon
[3] = test system: OVCAR-8 ovarian
[4] = test system: DU-145 prostate
[5] = test system: NCI/ADR-RES ovarian
[6] = test system: LOX IMVI melanoma
[7] = test system: MOLT-4 leukemia
[8] = test system: SR leukemia
[9] = test system: PC-3 prostate
[10] = test system: IGROV1 ovarian
[11] = test system: SW-620 colon
[12] = test system: HL-60(TB) leukemia
[13] = test system: OVCAR-5 ovarian
[14] = test system: K-562 leukemia
[15] = test system: CAKI-1 renal
[16] = test system: A549 NSCLC
[17] = test system: SNB-75 CNS
[18] = test system: SK-OV-3 ovarian
[19] = test system: NCI-H460 lung
[20] = test system: SK-MEL-5 melanoma
[21] = test system: U251 CNS
[22] = test system: NCI-H522 lung
[23] = test system: HT29 colon
[24] = test system: NCI-H23 lung
[25] = test system: ACHN renal
[26] = test system: KM12 colon
[27] = test system: SF-295 CNS
[28] = test system: NCI-H226 lung
[29] = test system: UACC-62 melanoma
[30] = test system: HCT-15 colon
[31] = test system: MALME-3M melanoma
[32] = test system: TK-10 renal
[33] = test system: MDA-MB-435
[34] = test system: M14 melanoma
[35] = test system: HCC-2998 colon
[36] = test system: MDA-MB-231 breast
[37] = test system: CCRF-CEM leukemia
[38] = test system: HS 578T breast
[39] = test system: SF-539 CNS
[40] = test system: SNB-19 CNS
[41] = test system: SK-MEL-2 melanoma
[42] = test system: HOP-92 NSCLC
[43] = test system: HOP-62 NSCLC
[44] = test system: UACC-257 melanoma
[45] = test system: MCF7 breast
[46] = test system: BT-549 breast
[47] = test system: SF-268 CNS
[48] = test system: 786-0 renal
[49] = test system: RXF 393 renal
[50] = test system: COLO 205 colon
[51] = test system: EKVX NSCLC
[52] = test system: SK-MEL-28 melanoma
[53] = test system: A498 renal
[54] = test system: RPMI-8226 leukemia
[55] = test system: OVCAR-3 ovarian
[56] = test system: SN12C renal
[57] = test system: OVCAR-4 ovarian
[58] = test system: UO-31 renal

O=C(Nc1ccc(F)cc1F)c1cc(I)ccc1O
GI50 [1]: 1.99 µM
TGI [1]: 6.8 µM
GI50 [2]: 2.53 µM
TGI [2]: 7.6 µM
GI50 [3]: 3.23 µM
TGI [3]: > 100 µM
GI50 [4]: 3.87 µM
TGI [4]: > 100 µM
GI50 [5]: 2.92 µM
TGI [5]: 33.1 µM
GI50 [6]: 3.31 µM
TGI [6]: 17.6 µM
GI50 [7]: 3.15 µM
TGI [7]: 16.3 µM
GI50 [8]: 3.05 µM
TGI [8]: > 100 µM
GI50 [9]: 2.53 µM
TGI [9]: 8.73 µM
GI50 [10]: 2.4 µM
TGI [10]: > 100 µM
GI50 [11]: 3.39 µM
TGI [11]: 90.7 µM
GI50 [12]: 3.08 µM
TGI [12]: 9.13 µM
GI50 [13]: 3.72 µM
TGI [13]: > 100 µM
GI50 [14]: 3.16 µM
TGI [14]: > 100 µM
GI50 [15]: 1.92 µM
TGI [15]: 6.49 µM
GI50 [16]: 3.1 µM
TGI [16]: > 100 µM
GI50 [17]: 1.36 µM
TGI [17]: 4.58 µM
GI50 [18]: 1.12 µM
TGI [18]: 4.27 µM
GI50 [19]: 3.13 µM
TGI [19]: > 100 µM
GI50 [20]: 1.7 µM
TGI [20]: 3.35 µM
GI50 [21]: 3.07 µM
TGI [21]: > 100 µM
GI50 [22]: 2.73 µM
TGI [22]: 14.1 µM
GI50 [23]: 4.06 µM
TGI [23]: > 100 µM
GI50 [24]: 2.72 µM
TGI [24]: 10.4 µM
GI50 [25]: 2.5 µM
TGI [25]: 7.62 µM
GI50 [26]: 2.93 µM
TGI [26]: 9.53 µM
GI50 [27]: 1.95 µM
TGI [27]: 3.94 µM
GI50 [28]: 2.46 µM
TGI [28]: 15.8 µM
GI50 [29]: 1.46 µM
TGI [29]: 4.49 µM
GI50 [30]: 3.27 µM
TGI [30]: 45.5 µM
GI50 [31]: 2.08 µM
TGI [31]: 6.45 µM
GI50 [32]: 4.73 µM
TGI [32]: 31.1 µM
GI50 [33]: 3.02 µM
TGI [33]: 10.1 µM
GI50 [34]: 2.21 µM
TGI [34]: 8.05 µM
GI50 [35]: 3.73 µM
TGI [35]: 47 µM
GI50 [36]: 1.87 µM
TGI [36]: 5.8 µM
GI50 [37]: 4.05 µM
TGI [37]: > 100 µM
GI50 [38]: 2.37 µM
TGI [38]: 8.07 µM
GI50 [39]: 2.83 µM
TGI [39]: 10.2 µM
GI50 [40]: 3.11 µM
TGI [40]: > 100 µM
GI50 [41]: 2.29 µM
TGI [41]: 6.07 µM
GI50 [42]: 1.2 µM
TGI [42]: 4.65 µM
GI50 [43]: 2.42 µM
TGI [43]: 7.87 µM
GI50 [44]: 2.09 µM
TGI [44]: 7.09 µM
GI50 [45]: 2.77 µM
TGI [45]: > 100 µM
GI50 [46]: 1.99 µM
TGI [46]: 5.16 µM
GI50 [47]: 3 µM
TGI [47]: 47.4 µM
GI50 [48]: 3.13 µM
TGI [48]: 9.7 µM
GI50 [49]: 2.5 µM
TGI [49]: 7 µM
GI50 [50]: 5.95 µM
TGI [50]: 21.7 µM
GI50 [51]: 2.19 µM
TGI [51]: 9.14 µM
GI50 [52]: 1.93 µM
TGI [52]: 6.84 µM
GI50 [53]: 1.45 µM
TGI [53]: 3.31 µM
GI50 [54]: 2.5 µM
TGI [54]: 8.96 µM
GI50 [55]: 3.13 µM
TGI [55]: 23.2 µM
GI50 [56]: 2.46 µM
TGI [56]: 8.54 µM
GI50 [57]: 2.49 µM
GI50 [58]: 1.63 µM
TGI [58]: 6.11 µM
